From patent publication US20250186454A1, “METHODS FOR TREATING ABERRANT BEHAVIOR AND MOTOR ACTIVITY” (LAPKO INC, dba AFECTA PHARMACEUTICALS, priority 2023, published 2025) come the findings set out here.

Series [1] relates to patients with ASD. In words: open-label observational trial, eight weeks, response scored using the ABC-C scale. Format: in vivo, human. The method, then:
In an open-label observational trial by an investigator, 11 patients with ASD were treated for eight weeks with molindone starting at 5 mg/day and the dosage increased by the patient and caregiver in 5 mg increments as tolerated by the subjects up to a maximum dose of 25 mg/day or until amelioration of the aberrant behaviors was seen. Patient response was scored using the ABC-C scale.

A short description of series [2]: pharmacokinetic study of equivalent doses by gastric absorption compared to sublingual absorption. Format: in vivo. How it is done:
A study of equivalent doses of molindone administered by gastric absorption compared to sublingual absorption. […] Molindone is primarily, if not exclusively, metabolized by the liver (hepatic metabolism). The first metabolite of molindone obtained by liver metabolism is 3-ethyl-2-(hydroxymethyl)-5-[(morpholin-4-yl)methyl]-1,5,6,7tetrahydro-4H-indol-4-one. The level of this metabolite was also measured at the Cmax of the sublingual and gastric dosing regimens.

The mark [3] stands for this setting: N=11, Week 8 vs baseline, p <0.0001.

Turning to `CCc1c(C)[nH]c2c1C(=O)C(CN1CCOCC1)CC2` (stereo not drawn) [molindone, 3-ethyl-2-methyl-5-(morpholin-4-ylmethyl)-1,5,6,7-tetrahydroindol-4-one], in series [1] (ASD patients, eight weeks), the “body weight during the course of therapy (subjective responses from caregivers and subjects)” value was “noticeable and desirable weight loss”; the “somnolence during the course of the study” value was “none complained of increased somnolence”. Moreover, the “ABC-C Total Score (0-174), Decrease from baseline (%)” value in series [1] (N=11, Week 8 vs baseline, p 0.0001) was found to be 69.9%. Further, the “ABC-C Inappropriate speech (0-12), Decrease from baseline (%)” value in series [1] (N=11, Week 8 vs baseline, p 0.0048) is listed as 77%. Moreover, in series [1] (N=11, Week 8 vs baseline, p 0.0069), the “ABC-C Lethargic/Withdrawn (0-48), Decrease from baseline (%)” value turned out to be 63.2%. Besides, the “ABC-C Stereotypy (0-21), Decrease from baseline (%)” value in series [1] (N=11, Week 8 vs baseline, p 0.0081) is reported as 72.8%. Also, in series [1] (setting [3]), the “ABC-C Hyperactivity/Noncompliance (0-48), Decrease from baseline (%)” value came out at 62.4% and the “ABC-C Irratability (0-45), Decrease from baseline (%)” value amounted to 76.6%. The “ABC-C Scale Mean Score, Inappropriate speech (0-12), Week 8” value in series [1] (N=11 ASD patients, 5 up to 25 mg/day, baseline 9.6, p 0.0048) is reported as 2.2. Further, in series [1] (N=11 ASD patients, 5 up to 25 mg/day, baseline 11.8, p 0.0081), the “ABC-C Scale Mean Score, Stereotypy (0-21), Week 8” value came out at 3.2. Besides, the “ABC-C Scale Mean Score, Lethargic/Withdrawn (0-48), Week 8” value in series [1] (N=11 ASD patients, 5 up to 25 mg/day, baseline 16.5, p 0.0069) stood at 6.4. In series [1] (N=11 ASD patients, 5 up to 25 mg/day, baseline 29.8, p <0.0001), the “ABC-C Scale Mean Score, Hyperactivity/Noncompliance (0-48), Week 8” value turned out to be 11.2. Moreover, the “ABC-C Scale Mean Score, Irratability (0-45), Week 8” value in series [1] (N=11 ASD patients, 5 up to 25 mg/day, baseline 35.6, p <0.0001) came to 8.3. Moreover, the “ABC-C Scale Mean Score, Total Score (0-174), Week 8” value in series [1] (N=11 ASD patients, 5 up to 25 mg/day, baseline 103.3, p 0.0001) is reported as 31.3. Besides, the “reduction of symptoms in all five ABC-C categories, including stereotypy” value in series [1] (during the eight-week study, all p values less than 0.05) is given as “significant improvement”. In addition, the T1/2 result in series [2] (non-gastric dosing regimen compared to gastric dosing) was “longer”. In series [2] (sublingual dosing compared to gastric dosing), the “area under the curve (AUC)” value is given as “better”. The “Cmax (highest plasma concentration of the drug)” value in series [2] (sublingual dosing compared to gastric dosing, equivalent doses, FIG. 1) is listed as “higher”.
